{"source": "paper PMC10827914", "about": "(Cellular and Molecular Life Sciences: CMLS, 2024)", "key": {"[1]": {"test_system": "membrane CD13 expressed by HUVEC", "assay": "Competitive binding of anti-CD13 mAb WM15 to HUVEC by flow cytometry", "design": "species or system human", "protocol": "HUVEC were seeded in 96-well U-bottom polystyrene microtiter plates at a density of 2 × 10^5 cells in 100 µL DPBS supplemented with 5% normal human serum (NHS) and mixed with a mixture of peptide G4 ranging from 0 to 10 µM and mAb WM15 (0 or 0.13 nM). The chromogranin A429-439 peptide fragment (CgA429-439) was used instead of G4 as a control. After 1 h of incubation at 4 °C, the cells were washed and resuspended in 100 µL of DPBS containing 5% NHS and 1 µg/mL of FITC-labeled goat anti-mouse IgG secondary antibody. Cells were subsequently incubated for 1 h at 4 °C, washed, and analyzed by flow cytometry. All flow cytometry data were collected on a CytoFLEX S flow cytometer (Beckman Coulter) and analyzed using FlowJo software 10 (BD BioScience).\nFig. 2 G4 recognizes soluble forms of CD13, with higher affinity and selectivity than bestatin, and the membrane forms expressed on the surface of HUVEC cells. A Inhibitory effects of G4 and bestatin on the enzymatic activities of different aminopeptidases (rCD13, APA, and APB). Various amounts of G4 or bestatin were incubated with rCD13 (0.2 µg/mL in 60 mM Tris–HCl pH 7.4), APA (0.2 µg/mL in 60 mM Tris–HCl pH 7.4, 50 mM calcium chloride, 200 mM sodium chloride) or APB (0.2 µg/mL in 60 mM Tris–HCl pH 7.4, 100 mM potassium chloride) and the corresponding substrates at 0.1 mM (L-alanine-7-amido-4-methylcoumarin for rCD13, L-glutamic acid γ-(7-amido-4-methylcoumarin) for APA, and L-arginine-7-amido-4-methylcoumarin for APB). The mixtures were incubated for 30 min at 37 °C, and the cleavage of each substrate was monitored by measuring the fluorescence of methylcoumarin (λex 341 nm; λem 441 nm) using an Infinite 200 PRO plate reader (Tecan). Three independent experiments were performed for each enzyme. […] Substrate cleavage by sCD13 dissociated from mAb WM15 was then monitored by measuring the absorbance at 405 nm in each well using a plate reader (Bio-Rad). […] After incubation for 60 min at 4 °C, the cells were washed and analyzed by flow cytometry. Data are expressed as the percentage of counts vs. fluorescence intensity units […]"}, "[2]": {"test_system": "WEHI-164 fibrosarcoma", "assay": "Antitumor activity in WEHI-164 fibrosarcoma-bearing mice", "type": "in vivo", "protocol": "Female BALB/c mice (Charles River Laboratories, Calco, Italy), weighing 16–18 g, were subcutaneously injected into the left flank of 10^6 WEHI-164 cells (ATCC, cat. CRL-1751, Lot. 63,682,839). Dose-finding experiments were performed with groups of six mice treated with G4-TNF (4, 20, or 100 pg/dose in 100 μL of 0.9% sodium chloride containing 100 µg/ml HSA, intraperitoneally injected on day 5) or vehicle. Tumor growth was monitored daily by measuring tumor volume with calipers, as previously described. The animals were sacrificed before the tumor diameter reached 1.0–1.5 cm. To test whether the antitumor activity of G4-TNF was mediated by CD13, tumor-bearing mice (6 animals/group) were treated with a single injection of G4-TNF (100 pg/dose, i.p.) in combination with peptide CNGRC (100 µg/dose) or anti-CD13 mAb R3-63 (25 µg/dose, given 1.5 h i.p. before administration of G4-TNF) 5 days after tumor implantation.\nFig. 3 Effect of G4-TNF on tumor growth and body weight of mice bearing WEHI-164 fibrosarcomas. A Mice bearing subcutaneous WEHI-164 tumors (5–6 mice/groups) were treated 5 days after tumor implantation with a single intraperitoneal injection of G4-TNF (0, 4, 20, or 100 pg). Tumor volume and body weight after treatment were monitored daily. B Effect of mAb R3-63 (anti-murine CD13 antibody, 25 µg) and CNGRC peptide (100 µg) on the antitumor activity of G4-TNF (100 pg) (5–6 mice/group). The arrows indicate the time of treatment. *P < 0.05; **P < 0.01, by Mann–Whitney analysis of the area under the curve for each tumor, with the GraphPad Prism software (mean ± SEM)\nA) Mice bearing subcutaneous WEHI-164 tumors (6 mice/groups), were treated 5-6 days after tumor implantation with a single intraperitoneal injection of murine NGR-TNF (0, 25, 50, or 100 pg). Tumor volume and body weight after treatment were monitored daily.\nB) Effect of murine TNF (50 pg) on tumor growth and body weight. The arrows indicate the time of treatment (mean ± SEM)."}}}
{"substance": "VGCARRYCS-TNF [G4-TNF, recombinant murine TNF fused to the C-terminus of G4]", "values": [{"measurement": "Competition of mAb WM15 binding to HUVEC (in words)", "setting": "[1]; Fig. 4C and 4D", "result": "competed the binding of mAb WM15 to endothelial cells"}, {"measurement": "Competition of mAb WM15 binding to HUVEC (in words)", "setting": "[1]; competitor 5 µM, mAb WM15 0.13 nM, 60 min, 4 °C, Supplementary Fig. S4D", "result": "competed with the binding of mAb WM15 (anti-CD13) to HUVEC to an extent similar to that observed with G4"}, {"measurement": "Body weight and clinical signs of toxicity", "setting": "[2]; mice after treatment with 4, 20 or 100 pg i.p.", "result": "No loss of body weight and no other clinical signs of toxicity"}, {"measurement": "Antitumor effect (tumor growth)", "setting": "[2]; single intraperitoneal injection of 100 pg, 5 days after tumor implantation", "result": "significant antitumor effects"}]}
